According to patent US12258547B2, “Cell culture plate, method for preparing thereof and method for detecting a substance” (UPM-Kymmene Corporation, priority 2019, dated 2025):
Structures can show the parent of a compound that is named as a salt.

Tests used:
BJ fibroblasts [1] = test: Experiments 2-3: HepaRG/BJ co-culture separated by GrowDex barrier, dosing via HepaRG, WST-1, BJ side; conditions: for MEAN absorbance at 450 nm / MEDIAN absorbance at 450 nm / viability, % of control: BJ cells
From the text: (§1) Cell viability/cytotoxicity was always investigated using WST-1 assay. The assay principle is based on the conversion of the tetrazolium salt WST-1 into a colored dye by mitochondrial dehydrogenase enzymes. The soluble salt is released into the media. Within a given time period, the reaction produces a color change which is directly proportional to the amount of mitochondrial dehydrogenase in a given culture. As a result, the assay actually measures the net metabolic activity of cells. Theoretically, this is reflective of cell number • the more cells, the more dehydrogenase available to reduce the reagent. […]
(§2) The mean absorbances were calculated separately for each well and both sides of the barrier. The decision on the acceptability of the data was made individually for each well. The data of the well was accepted provided that the barrier functioned properly, i.e. the ratio of HepaRG and BJ absorbances at 450 nm was >2.0.
(§3) GrowDex barriers were prepared to split the wells of a 24-well plate into two “equally sized” compartments as follows. 250 μl GrowDex was pipetted to the wells (using positive displacement pipette) to construct the first layer of the barrier. The barriers were left to dry in the laminar hood for 1 hr with the lid open. Then a second layer was pipetted on the top of the first layer.
(§4) BJ cell suspension was prepared at a density of 70 000 cells/ml BJ cell culture medium, and 150 μl of this suspension was pipetted to the right side of the barriers resulting in 10 500 cells/well.
(§5) HepaRG suspension was prepared at a density of 2 million HepaRG cells/ml HepaRG® Thawing/Plating/General Purpose Medium 670. Medium was removed from the left side of the barrier. 150 μl HepaRG suspension, i.e., 300 000 cells was added to each well. The plate was gently agitated in back-and-forth and side-to-side manner, and the homogeneity of the cell distribution was ensured visually. The plate was placed back into cell culture incubator and the cells were let recover for 4 hrs before exposure.
(§6) Medium was carefully removed from the HepaRG cells (left side of the barrier), and replaced with 75 μl/well HepaRG TOX Medium/well. This was performed one well at a time.

[2] = Experiments 2-3: HepaRG/BJ co-culture separated by GrowDex barrier, dosing via HepaRG, WST-1, HepaRG side; assay type: cell-based; conditions: human
Protocol: (§7) The soluble salt is released into the media.
(§8) Eight barriers were prepared using this method. […] Four barriers were prepared using this method.
(§9) The plate was incubated for 1 hr.
(§10) This was performed one well at a time.
(§11) Absorbance was read using the Multipoint measurement.

HepaRG cells = test: as above; assay type: cell-based; conditions: for MEAN absorbance at 450 nm / MEDIAN absorbance at 450 nm / viability, % of control: HepaRG
Protocol: as §7, §8, §9, §10, §11

BJ fibroblasts [3] = test: Experiment 1: WST-1 viability of BJ fibroblast monoculture, direct exposure; conditions: for toxicity to BJ fibroblast monocultures: drug as such, without HepaRG treatment
From the text: (§12) Cell viability/cytotoxicity was always investigated using WST-1 assay. The assay principle is based on the conversion of the tetrazolium salt WST-1 into a colored dye by mitochondrial dehydrogenase enzymes. The soluble salt is released into the media. Within a given time period, the reaction produces a color change which is directly proportional to the amount of mitochondrial dehydrogenase in a given culture. As a result, the assay actually measures the net metabolic activity of cells. Theoretically, this is reflective of cell number • the more cells, the more dehydrogenase available to reduce the reagent.
(§13) BJ cell suspension was prepared at a density of 40 000 cells/ml in BJ cell culture medium. 100 μl of this suspension was pipetted to a 96-well plate resulting in 4000 cells/well.
(§14) Selegiline and paracetamol dilutions were prepared on the day of use. First, 1 mg/ml stocks were prepared from both drugs, then 200 and 20 μg/ml dilutions were prepared from paracetamol stock, and 200, 20, 10, 5 and 2 μg/ml dilutions from selegiline stock. The stocks and dilutions were prepared in BJ chemical dilution medium. Selegiline toxicity was studied more extensively than paracetamol, because there was no previous data of selegiline toxicity to BJ fibroblasts. Instead, paracetamol toxicity to human BJ fibroblasts has been extensively studied.
(§15) BJ cell culture medium was removed from the cells by dumping and blotting the plate carefully on sterile towel. Immediately, 50 μl BJ cell culture medium was added to all wells, and then 50 μl test item dilutions (selegiline or paracetamol) or 50 μl vehicle control. […] BJ chemical dilution medium was used as vehicle control. […] One of the plates was incubated for 3 hrs and the other for 20 hrs.
(§16) After the 3-hours or 20 hrs incubation, 10 μl WST-1 reagent was added into the wells. The plate was incubated for 2 hrs, thereafter absorbance was read at 450 nm.
(§17) Blank values (contained all reagents, including drugs, but no cells) were subtracted from the absorbance data. […] The statistical difference between untreated control and treated cells was assessed using t-test (SigmaPiot).

BJ fibroblasts [4] = test: Experiment 4: BJ cells exposed to direct or HepaRG-conditioned paracetamol, WST-1; assay type: cell-based, Human; conditions: 500 μg/ml, conditioned 20 hrs with HepaRG, 24 hrs exposure
Protocol: The HepaRG cells that were left from Experiment 3 were seeded to a 25 cm^2 cell culture flask, and cultured for 1 week. Medium (HepaRG induction medium) was renewed twice during the week.
The medium was removed from HepaRG cells (grown in a 25 cm^2 flask), and replaced by 2.5 ml of HepaRG TOX medium. Then 2.5 ml of 1 mg/ml paracetamol prepared in HepaRG TOX medium was added to the flask (final paracetamol concentration 500 μg/ml). HepaRG cells were incubated with paracetamol for 20 hrs.
The medium was removed from BJ cells, and replaced by 500 μg/ml paracetamol in BJ chemical dilution medium or 500 μg/ml HepaRG-conditioned-paracetamol in HepaRG TOX-medium. BJ chemical dilution medium and HepaRG TOX medium served as vehicle controls. All treatments were tested in 16 parallel wells. The exposure time was 24 hrs.
After the exposure, 10 μl WST-1 reagent was added to the wells. The plate was incubated for 2 hrs, and the absorbance was read at 450 nm.

[5] = Experiments 2-3: HepaRG/BJ co-culture separated by GrowDex barrier, dosing via HepaRG, WST-1, BJ side; conditions: human, decrease of BJ viability, 10 μg/ml via HepaRG, 3 hrs
From the text: as §1, §2, §3, §4, §5, §6

[6] = Experiment 1: WST-1 viability of BJ fibroblast monoculture, direct exposure; conditions: human
From the text: as §12, §13, §14, §15, §16, §17

[7] = 250 μg/ml paracetamol via HepaRG, 4 hrs
[8] = 250 μg/ml paracetamol via HepaRG, 20 hrs
[9] = 500 μg/ml paracetamol via HepaRG, 4 hrs
[10] = 500 μg/ml paracetamol via HepaRG, 20 hrs
[11] = 1 μg/ml selegiline via HepaRG, 3 hrs
[12] = 5 μg/ml selegiline via HepaRG, 3 hrs
[13] = 10 μg/ml selegiline via HepaRG, 3 hrs

CC(=O)Nc1ccc(O)cc1 [paracetamol, Paracetamol]
increase of BJ cell viability (BJ fibroblasts [1]; 250 μg/ml via HepaRG, 4 hrs): ~40%
increase of BJ viability (BJ fibroblasts [1]; 250 μg/ml via HepaRG, 20 hrs): ~30%
effect on BJ cell viability (BJ fibroblasts [1]; 500 μg/ml via HepaRG, short exposure (4 hrs)): did not affect cell viability
MEAN absorbance at 450 nm (BJ fibroblasts [1]; [7]): 1.685
MEDIAN absorbance at 450 nm (BJ fibroblasts [1]; [7]): 1.777
viability, % of control (BJ fibroblasts [1]; [7]): 140.89 % of control
MEAN absorbance at 450 nm (BJ fibroblasts [1]; [8]): 1.777
MEDIAN absorbance at 450 nm (BJ fibroblasts [1]; [8]): 1.801
viability, % of control (BJ fibroblasts [1]; [8]): 128.23 % of control
MEAN absorbance at 450 nm (BJ fibroblasts [1]; [9]): 1.188
MEDIAN absorbance at 450 nm (BJ fibroblasts [1]; [9]): 1.164
viability, % of control (BJ fibroblasts [1]; [9]): 99.34 % of control
MEAN absorbance at 450 nm (BJ fibroblasts [1]; [10]): 1.356
MEDIAN absorbance at 450 nm (BJ fibroblasts [1]; [10]): 1.325
viability, % of control (BJ fibroblasts [1]; [10]): 97.89 % of control
cytotoxicity at 4 h, 250 μg/ml ([2]; 250 μg/ml, 4 hrs, read-out: decrease of HepaRG viability): ~15%
cytotoxicity at 20 h, 500 μg/ml ([2]; highest concentration (500 μg/ml), 20 hrs, read-out: reduction of HepaRG viability): ~10%
effect on HepaRG cell viability (HepaRG cells; 500 μg/ml, short exposure (4 hrs)): did not affect cell viability
MEAN absorbance at 450 nm (HepaRG cells; 250 μg/ml paracetamol, 4 hrs): 3.571
MEDIAN absorbance at 450 nm (HepaRG cells; 250 μg/ml paracetamol, 4 hrs): 3.513
viability, % of control (HepaRG cells; 250 μg/ml paracetamol, 4 hrs): 85.58 % of control
MEAN absorbance at 450 nm (HepaRG cells; 250 μg/ml paracetamol, 20 hrs): 4.196
MEDIAN absorbance at 450 nm (HepaRG cells; 250 μg/ml paracetamol, 20 hrs): 4.239
viability, % of control (HepaRG cells; 250 μg/ml paracetamol, 20 hrs): 105.78 % of control
MEAN absorbance at 450 nm (HepaRG cells; 500 μg/ml paracetamol, 4 hrs): 4.074
MEDIAN absorbance at 450 nm (HepaRG cells; 500 μg/ml paracetamol, 4 hrs): 4.134
viability, % of control (HepaRG cells; 500 μg/ml paracetamol, 4 hrs): 97.65 % of control
MEAN absorbance at 450 nm (HepaRG cells; 500 μg/ml paracetamol, 20 hrs): 3.606
MEDIAN absorbance at 450 nm (HepaRG cells; 500 μg/ml paracetamol, 20 hrs): 3.771
viability, % of control (HepaRG cells; 500 μg/ml paracetamol, 20 hrs): 90.91 % of control
increase of BJ cell viability (BJ fibroblasts [3]; 500 μg/ml, 3 hrs exposure): ~9%
toxicity to BJ fibroblast monocultures (BJ fibroblasts [3]): not toxic
effect on viability of BJ fibroblasts (BJ fibroblasts [3]; up to 500 μg/ml, 3 and 20 hrs): did not reduce the viability
effect of HepaRG-treatment on BJ fibroblast viability (BJ fibroblasts [4]): minor effect

C#CCN(C)[C@H](C)Cc1ccccc1 [selegiline, Selegiline hydrochloride]
cytotoxicity at 3 h, 10 μg/ml [5]: ~25%
effect on BJ viability (BJ fibroblasts [1]; 1 and 5 μg/ml via HepaRG, 3 hrs): seemed to increase
MEAN absorbance at 450 nm (BJ fibroblasts [1]; [11]): 1.429
MEDIAN absorbance at 450 nm (BJ fibroblasts [1]; [11]): 1.539
viability, % of control (BJ fibroblasts [1]; [11]): 141.43 % of control
MEAN absorbance at 450 nm (BJ fibroblasts [1]; [12]): 1.219
MEDIAN absorbance at 450 nm (BJ fibroblasts [1]; [12]): 1.243
viability, % of control (BJ fibroblasts [1]; [12]): 120.69 % of control
MEAN absorbance at 450 nm (BJ fibroblasts [1]; [13]): 0.760
MEDIAN absorbance at 450 nm (BJ fibroblasts [1]; [13]): 0.676
viability, % of control (BJ fibroblasts [1]; [13]): 75.19 % of control
cytotoxicity at 3 h, 10 μg/ml ([2]; 10 μg/ml, 3 hrs, read-out: decrease of HepaRG viability): ~5%
effect on HepaRG viability (HepaRG cells; 1 and 5 μg/ml, 3 hrs): seemed to increase
MEAN absorbance at 450 nm (HepaRG cells; 1 μg/ml selegiline, 3 hrs): 3.486
MEDIAN absorbance at 450 nm (HepaRG cells; 1 μg/ml selegiline, 3 hrs): 3.794
viability, % of control (HepaRG cells; 1 μg/ml selegiline, 3 hrs): 114.23 % of control
MEAN absorbance at 450 nm (HepaRG cells; 5 μg/ml selegiline, 3 hrs): 3.344
MEDIAN absorbance at 450 nm (HepaRG cells; 5 μg/ml selegiline, 3 hrs): 3.588
viability, % of control (HepaRG cells; 5 μg/ml selegiline, 3 hrs): 109.57 % of control
MEAN absorbance at 450 nm (HepaRG cells; 10 μg/ml selegiline, 3 hrs): 2.892
MEDIAN absorbance at 450 nm (HepaRG cells; 10 μg/ml selegiline, 3 hrs): 3.078
viability, % of control (HepaRG cells; 10 μg/ml selegiline, 3 hrs): 94.77 % of control
cytotoxicity at 500 μg/ml [6]: ~10%
toxicity to BJ fibroblast monocultures (BJ fibroblasts [3]): not toxic
increase of BJ fibroblast viability (BJ fibroblasts [3]; lowest selegiline concentrations): ~10%
